The text below walks through data of patent US20110124626A1, “BENZAZEPINE DERIVATIVES AND THEIR USE AS HISTAMINE H3 ANTAGONISTS” (TAKEDA PHARMACEUTICAL COMPANY LIMITED, priority 2008, published 2011).

Broadly, the IC50 is the midpoint of a concentration-inhibition curve.

The target of assay [1] is T1, human H3 receptor (Homo sapiens, UniProt Q9Y5N1).
T1 construct: expressed in transfected cells
Put plainly: In vitro H3 binding assay (3H-N-α-methyl-histamine competition binding). The conditions noted are these: membranes of CHO-K1 cells expressing human H3 receptor; 2 nM 3H-NαMH; read-out: hH3 binding IC50. The procedure: The ability of compounds to bind to the H3 receptor was determined by measuring the reduction in tritiated N-α-methyl-histamine (^3H—NαMH) binding in a competition binding assay. Changes in the levels of bound radio-label were monitored by scintillation counting with a Trilux Microbeta (Perkin Elmer).
Membranes were prepared from CHO-K1 cells stably expressing human H3 receptor; routinely grown as monolayers in Ham's F12 medium (Invitrogen) supplemented with 10% Foetal Clone 111 (Hyclone), 500 μg/ml G418 (Invitrogen), 5 μg/ml blasticidine S (Invivogen) and […] Gentamicin (Sigma) in 5% CO2 at 37° C. Cells were grown to 80-95% confluency, rinsed once with 1×PBS (Invitrogen) and detached by incubating with 1×PBS containing 0.02% EDTA (Sigma) for 10 minutes at room temperature. Cells were collected by centrifugation at 900×g, 4° C. for 10 minutes. Cells were rinsed once with 1×PBS and re-suspended in ice cold homogenisation buffer (50 mM Tris-HCl (pH 7.4), 2.5 mM EDTA, 5 mM MgCl2, 200 mM Sucrose) at 1×10^7 cells/ml and kept on ice. Cells were homogenised on ice and debris removed by centrifugation at 500×g, 4° C. for 5 minutes. The resulting supernatant was centrifuged at 75,600×g, 4° C. for 60 minutes. Membranes were suspended in homogenisation buffer, protein concentration was determined (BCA Protein Assay kit (Pierce)), diluted to 2.2 mg/ml, dispensed into 1 ml aliquots and stored at −80° C.
Membranes were thawed on ice, sonicated with 4 cycles of 20 pulses (50% amplitude, 0.5 pulse) (UP200S Hielscher) on ice, diluted in assay buffer (50 mM Tris-HCl (pH7.4), 5 mM MgCl2) to 62.5 μg/ml. Compound was serially diluted in DMSO before being diluted 1:10 with assay buffer. 5 μg of membrane in 80 μl of assay buffer was added per well of a 96 well polystyrene plate (Corning). […] of compound was added per well. The assay was initiated by the addition of 10 μl of 20 nM ^3H—NαMH per well and incubated for one hour at room temperature with shaking. Total binding was determined in the presence of 1% DMSO and non-specific binding was determined by the inclusion of 1 μM R-α-methyl-histamine (RαMH). Incubations were then filtered through filtermat A (Perkin Elmer) and washed three times with assay buffer. Filtermats were dried at 42° C. for two hours, scintillant added and the level of bound radioactivity determined.
IC50 values for compounds were determined from seven point log scale dose-response studies and represent the concentration of compound required to inhibit 50% of the specific binding of 2 nM ^3H—NαMH (difference between total and non-specific binding). Curves were generated using the average of duplicate wells for each data point and analyzed using nonlinear regression of sigmoidal dose response (variable slope).

For assay [2], the target named is T1, human H3 receptor. The experiment in a line: In vitro H3 functional assay (cAMP response element driven luciferase reporter). It counts as cell-based. The conditions noted are these: CHO(dhfr+)-cre-luc cells expressing human H3 receptor; RαMH 10 nM, forskolin 1 μM; read-out: hH3 functional IC50. As for the experimental part: The functional activity of compounds at the H3 receptor was determined by measuring changes in the level of intracellular cAMP using a cAMP response element driven luciferase reporter assay. The changes in luciferase expression were monitored by a luminescence plate reader, Analyst HT (MDS Analytical). Increases in intracellular cAMP were readily detected upon activation of protein kinase A by forskolin (Sigma) and suppression of this response observed with the application of the H3 receptor agonist RαMH (Sigma).
CHO(dhfr^+)-cre-luc cells stably expressing human H3 receptor were routinely grown as monolayers in Minimal Essential Medium α (MEMα) (Invitrogen) supplemented with 10% dialysed FBS (Hyclone), in 5% CO2 at 37° C. 48 hours prior to assay, cells were seeded in clear-base white walled 384-well plates (Corning) at a density of 5000 cells/well. On the day of assay, growth media was removed and replaced with […] of assay buffer (MEMα, 5 mg/ml fatty acid free BSA (Sigma)) per well. Cells were then incubated for 30 minutes at 37° C., 5% CO2. Compound was serially diluted in DMSO before being diluted 1:10 with assay buffer. 2.5 of compound diluted in assay buffer was added and cells incubated for 5 minutes at 37° C., 5% CO2. 2.5 μl of each reagent was then added in the following order: RαMH (10 nM), isobutylmethylxanthine (1-methyl-3-(2-methylpropyl)-7H-purine-2,6-dione; IBMX) (500 μM) (Sigma) and forskolin (1 μM). Cells were then incubated for 90 minutes at 37° C., 5% CO2, followed by 30 minutes at room temperature. At the end of incubation 25 μl of Steadylite reagent (Perkin Elmer) was added, plates were sealed and placed on a shaker for 5 minutes. The level of light output to determine the level of luciferase expression was then measured.
IC50 values for compounds were determined from ten point half log scale dose-response studies and represent the concentration of compound required to […] 50% inhibition of forskolin stimulated cells in the presence of RαMH alone. Curves were generated using the average of duplicate wells for each data point and analyzed using nonlinear regression of four parameter dose response.
(In general: A reporter such as luciferase makes a cellular process visible.)

Molecules are shown by their SMILES.

T1 sequence (Q9Y5N1 whole entry): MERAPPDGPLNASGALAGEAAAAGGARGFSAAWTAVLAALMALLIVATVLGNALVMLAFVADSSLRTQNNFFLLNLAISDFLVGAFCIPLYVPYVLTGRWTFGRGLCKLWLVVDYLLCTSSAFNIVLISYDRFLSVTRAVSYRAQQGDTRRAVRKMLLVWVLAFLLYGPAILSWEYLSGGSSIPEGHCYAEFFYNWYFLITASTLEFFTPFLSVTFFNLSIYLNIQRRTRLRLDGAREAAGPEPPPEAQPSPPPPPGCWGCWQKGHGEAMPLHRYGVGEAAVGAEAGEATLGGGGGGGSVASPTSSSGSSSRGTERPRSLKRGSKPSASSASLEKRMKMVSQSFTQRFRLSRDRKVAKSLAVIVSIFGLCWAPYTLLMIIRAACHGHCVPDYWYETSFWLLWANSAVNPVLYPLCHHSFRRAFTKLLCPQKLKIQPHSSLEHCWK

For `CC(=O)N1CCC(C(O)Cc2ccc3c(c2)CCN(C2CCC2)CC3)CC1` (racemic) [Example 146, 1-(4-(2-(3-cyclobutyl-2,3,4,5-tetrahydro-1H-benzo[d]azepin-7-yl)-1-hydroxyethyl)piperidin-1-yl)ethanone], the IC50 at human H3 receptor [1] and on human H3 receptor [2] was 10 nM in each case.

Consider `CCC(=O)N1CCC(CC(O)Cc2ccc3c(c2)CCN(C2CCC2)CC3)CC1` (single isomer, unassigned) [Example 233, 1-(4-(3-(3-cyclobutyl-2,3,4,5-tetrahydro-1H-benzo[d]azepin-7-yl)-2-hydroxypropyl)piperidin-1-yl)propan-1-one], for which the figures for the IC50 on human H3 receptor [1] and on human H3 receptor [2] were 2 nM and 16 nM, respectively.

For the compound `CCC(=O)N1CCC[C@H](CC(O)Cc2ccc3c(c2)CCN(C2CCC2)CC3)C1` (single isomer, unassigned) [Example 251], the IC50 at human H3 receptor [1] is 11 nM; at human H3 receptor [2], 6 nM.

With `CCC(=O)N1CCC(C)(C(O)Cc2ccc3c(c2)CCN(C2CCC2)CC3)CC1` (single isomer, unassigned) [Example 257, 1-{4-[2-(3-cyclobutyl-2,3,4,5-tetrahydro-1H-3-benzazepin-7-yl)-1-hydroxyethyl]-4-methylpiperidin-1-yl}propan-1-one], the IC50 is 25 nM on human H3 receptor [1] and 7 nM at human H3 receptor [2].

For the compound `Cn1nccc1CNC(=O)c1ccc2c(c1)CCN(C1CCC1)CC2` [Example 1, 3-cyclobutyl-N-((1-methyl-1H-pyrazol-5-yl)methyl)-2,3,4,5-tetrahydro-1H-benzo[d]azepine-7-carboxamide], the IC50 was found to be 1 nM on human H3 receptor [1] and 0.7 nM on human H3 receptor [2].

With `O=C(NCC1CCNCC1)c1ccc2c(c1)CCN(C1CCC1)CC2` [Example 5, 3-Cyclobutyl-N-(piperidin-4-ylmethyl)-2,3,4,5-tetrahydro-1H-benzo[d]azepine-7-carboxamide], the IC50 is 22 nM at human H3 receptor [1] and 31 nM at human H3 receptor [2].

For `O=C(NCc1cccnc1)c1ccc2c(c1)CCN(C1CCCC1)CC2` [Example 20, 3-Cyclopentyl-N-(pyridin-3-ylmethyl)-2,3,4,5-tetrahydro-1H-benzo[d]azepine-7-carboxamide], the IC50 stood at 11 nM on human H3 receptor [1] and 3 nM on human H3 receptor [2].

Turning to `O=C(NCc1ccccc1)c1ccc2c(c1)CCN(C1CCC1)CC2` [Example 23, N-Benzyl-3-cyclobutyl-2,3,4,5-tetrahydro-1H-benzo[d]azepine-7-carboxamide], the IC50 on human H3 receptor [1] was 11 nM; on human H3 receptor [2], 2 nM.

As to `CNC(=O)c1ccc2c(c1)CCN(C1CCC1)CC2` [Example 24, 3-Cyclobutyl-N-methyl-2,3,4,5-tetrahydro-1H-benzo[d]azepine-7-carboxamide], the IC50 at human H3 receptor [1] was found to be 44 nM; on human H3 receptor [2] it was 16 nM.

For `O=C(NC1CCCC1)c1ccc2c(c1)CCN(C1CCC1)CC2` [Example 29, 3-Cyclobutyl-N-cyclopentyl-2,3,4,5-tetrahydro-1H-benzo[d]azepine-7-carboxamide], the IC50 was found to be 13 nM at human H3 receptor [1] and 8 nM at human H3 receptor [2].

On to `O=C(NCC1CCCCC1)c1ccc2c(c1)CCN(C1CCC1)CC2` [Example 34, 3-Cyclobutyl-N-(cyclohexylmethyl)-2,3,4,5-tetrahydro-1H-benzo[d]azepine-7-carboxamide], for which the IC50 at human H3 receptor [1] worked out at 26 nM; at human H3 receptor [2], 5 nM.

For the compound `O=C(NCC1CCOCC1)c1ccc2c(c1)CCN(C1CCC1)CC2` [Example 35, 3-Cyclobutyl-N-((tetrahydro-2H-pyran-4-yl)methyl)-2,3,4,5-tetrahydro-1H-benzo[d]azepine-7-carboxamide], the IC50 on human H3 receptor [1] came to 11 nM; on human H3 receptor [2], 1 nM.

For the compound `O=C(NCC1CCCO1)c1ccc2c(c1)CCN(C1CCC1)CC2` (centres unmarked) [Example 36, 3-cyclobutyl-N-((tetrahydrofuran-2-yl)methyl)-2,3,4,5-tetrahydro-1H-benzo[d]azepine-7-carboxamide], the IC50 on human H3 receptor [1] came out at 12 nM; on human H3 receptor [2], 2 nM.

As to `O=C(NCc1ccncc1)c1ccc2c(c1)CCN(C1CCC1)CC2` [Example 40, 3-Cyclobutyl-N-(pyridin-4-ylmethyl)-2,3,4,5-tetrahydro-1H-benzo[d]azepine-7-carboxamide], the results for the IC50 at human H3 receptor [1] and on human H3 receptor [2] were 3 nM and 2 nM, respectively.

With `O=C(NCc1cccnc1)c1ccc2c(c1)CCN(C1CCC1)CC2` [Example 42, 3-Cyclobutyl-N-(pyridin-3-ylmethyl)-2,3,4,5-tetrahydro-1H-benzo[d]azepine-7-carboxamide], the IC50 on human H3 receptor [1] is 9 nM; at human H3 receptor [2] it was 30 nM.

`Nc1ncccc1CNC(=O)c1ccc2c(c1)CCN(C1CCC1)CC2` [Example 44, N-((2-Aminopyridin-3-yl)methyl)-3-cyclobutyl-2,3,4,5-tetrahydro-1H-benzo[d]azepine-7-carboxamide]: the results for the IC50 on human H3 receptor [1] and on human H3 receptor [2] were 14 nM and 3 nM, respectively.

In the case of `CNC(=O)c1ccc(CNC(=O)c2ccc3c(c2)CCN(C2CCC2)CC3)cc1` [Example 53, 3-Cyclobutyl-N-(4-(methylcarbamoyl)benzyl)-2,3,4,5-tetrahydro-1H-benzo[d]azepine-7-carboxamide], the IC50 at human H3 receptor [1] was 51 nM; on human H3 receptor [2] it was 6 nM.

As for `O=C(NCc1cccc(C(F)(F)F)c1)c1ccc2c(c1)CCN(C1CCC1)CC2` [Example 59, 3-Cyclobutyl-N-(3-(trifluoromethyl)benzyl)-2,3,4,5-tetrahydro-1H-benzo[d]azepine-7-carboxamide], the IC50 at human H3 receptor [1] was determined as 6 nM; on human H3 receptor [2] it was 3 nM.

Take `O=C(NCc1cccc(-n2cncn2)c1)c1ccc2c(c1)CCN(C1CCC1)CC2` [Example 68, N-(3-(1H-1,2,4-Triazol-1-yl)benzyl)-3-cyclobutyl-2,3,4,5-tetrahydro-1H-benzo[d]azepine-7-carboxamide]: the figures for the IC50 on human H3 receptor [1] and on human H3 receptor [2] were 1 nM and 3 nM, respectively.

As to `O=C(NCc1cccc(-c2nccs2)c1)c1ccc2c(c1)CCN(C1CCC1)CC2` [Example 69, 3-Cyclobutyl-N-(3-(thiazol-2-yl)benzyl)-2,3,4,5-tetrahydro-1H-benzo[d]azepine-7-carboxamide], the IC50 at human H3 receptor [1] amounted to 2 nM; at human H3 receptor [2], 0.5 nM.

Turning to `O=C(NCc1cccc(Cn2cccn2)c1)c1ccc2c(c1)CCN(C1CCC1)CC2` [Example 70, N-(3-((1H-Pyrazol-1-yl)methyl)benzyl)-3-cyclobutyl-2,3,4,5-tetrahydro-1H-benzo[d]azepine-7-carboxamide], the IC50 on human H3 receptor [1] was 5 nM; at human H3 receptor [2], 3 nM.

For `O=C(NCc1c[nH]c2ccccc12)c1ccc2c(c1)CCN(C1CCC1)CC2` [Example 72, N-((1H-Indol-3-yl)methyl)-3-cyclobutyl-2,3,4,5-tetrahydro-1H-benzo[d]azepine-7-carboxamide], the IC50 at human H3 receptor [1] was 1 nM; at human H3 receptor [2], 2 nM.
